# Like-named read-outs stand apart in the source and are kept apart here.
# Tests used:
# HCT-8 cells = experiment: fluorescent HCT-8 host cell growth assay; assay type: cell-based, human
# Text: The differentiation of selective antiparasitic effects from those that are a secondary consequence of a host cell effect is a critical issue in drug discovery for intracellular parasites. Cytotoxicity assays commonly reflect plasma membrane integrity, and are a crude measure of host cell effects—it is conceivable that more subtle perturbations of host cell metabolism can have an adverse effect on parasite proliferation. Therefore we sought to develop a simple and inexpensive assay of host cell growth. The human ileocecal adenocarcinoma epithelial cell line, HCT-8, which is commonly used to maintain C. parvum infection in tissue culture, was engineered to constitutively express a green fluorescent protein (GFP). Growth of this cell line was monitored daily using a fluorescent plate reader. […] These experiments validate the use of the fluorescent HCT-8 cell growth assay.
# HCT-8 cells were transfected with the pmaxGFP plasmid (Amaxa) using Lipofectamine (Invitrogen) following the manufactures instruction. Fluorescent lines were then selected and cloned using FACS. Confluent monolayers of pmaxGFP expressing cells were harvested from T75 flasks and passed through a 40 μm cell strainer. Cells were then seeded at 4000 cells per well in a volume of 200 μL into black, optical quality, thin bottom, 96-well plates (DB Falcon). All test compounds were diluted in DMSO to prepare a 200× working stock for each dilution. Appropriate wells were spiked with 1 μl such that the final concentration of DMSO was 0.5%. The fluorescence was read daily with a SpectraMax M22/M2e (Molecular Devices) plate reader (Ex 485, Em 530) for 6-7 days. The percent inhibition was calculated on a day within the exponential phase of growth.
# T. gondii-CpIMPDH = T. gondii-CpIMPDH fluorescence growth assay; assay type: cell-based, Toxoplasma gondii
# [1] = system: primary human, mouse, rat, and dog lymphocytes; conditions: cited from earlier work
# [2] = molecular target: CpIMPDH, HpIMPDH, BbIMPDH, SpIMPDH, EcIMPDH and TfIMPDH
# wild-type T. gondii = wild-type T. gondii fluorescence growth assay; assay type: cell-based; conditions: Toxoplasma gondii
# T. gondii-ΔHXGPRT = T. gondii-ΔHXGPRT fluorescence growth assay; assay type: cell-based; conditions: Toxoplasma gondii, read-out: EC50 T. gondii-ΔHXGPRT growth
# [3] = read-out: intrinsic Ki (adjusted for competition from the mobile flap), range over IMPDHs
melting point [°C],SMILES,also measured
204 to 206,"O=C(Nc1ccc(Cl)cc1)C(Oc1cccc2ccccc12)C1CC1 (centres unmarked) [Compound 119, N-(4-chlorophenyl)-2-cyclopropyl-2-(1-naphthalenyloxy)acetamide]",–
170 to 172,"CC(Oc1ccnc2ccccc12)C(=O)Nc1ccc(Cl)cc1 (centres unmarked) [Compound 114, N-(4-chlorophenyl)-2-[[4-quinolinyl]oxy]propanamide]",–
64 to 66,"C[C@H](Oc1ccnc2ccccc12)c1cn(-c2ccc(Cl)c(Cl)c2)nn1 [Compound 30, (S)-4-(1-(1-(3,4-dichlorophenyl)-1H-1,2,3-triazol-4-yl)ethoxy)quinoline]",–
94 to 96,"C[C@@H](Oc1cccc2ncccc12)c1cn(-c2ccc(Cl)cc2)nn1 [Compound 21, (R)-5-(1-(1-(4-chlorophenyl)-1H-1,2,3-triazol-4-yl)ethoxy)quinoline]",–
176 to 178,C[C@H](Oc1ccnc2ccccc12)c1cn(-c2ccc(C#N)c(Cl)c2)nn1,–
165 to 167,"CC(Oc1cccc2c1ccc[n+]2[O-])c1cn(-c2ccc(Cl)cc2)nn1 (centres unmarked) [Compound 25, 5-(1-(1-(4-chlorophenyl)-1H-1,2,3-triazol-4-yl)ethoxy)quinoline 1-oxide]",–
128 to 130,"CC(Oc1ccnc2ccccc12)c1cn(-c2ccc(Cl)cc2)nn1 (centres unmarked) [Compound 13, 4-(1-(1-(4-chlorophenyl)-1H-1,2,3-triazol-4-yl)ethoxy)quinoline]",–
–,"CCCC(=O)[O-].[Na+] [Sodium butyrate, reference compound]","host cell (HCT-8) growth effect, in words (HCT-8 cells; human): inhibit HCT-8 growth in a dose-dependent manner"
–,CC(Oc1ccnc2ccccc12)c1cn(-c2ccc(Cl)c(Cl)c2)nn1 (centres unmarked) [A90],"host cell (HCT-8) growth effect, in words (HCT-8 cells): do not inhibit host cell growth; selectivity for T. gondii-CpIMPDH parasite over wild-type T. gondii (T. gondii-CpIMPDH): little selectivity"
–,CC(Oc1ccc(Cl)c2ccccc12)c1cn(-c2ccc(Cl)cc2)nn1 (centres unmarked) [A82],"host cell (HCT-8) growth effect, in words (HCT-8 cells): do not inhibit host cell growth; selectivity for T. gondii-CpIMPDH parasite over wild-type T. gondii (T. gondii-CpIMPDH): little selectivity"
194 to 196,CC(Oc1ccnc2ccccc12)c1cn(-c2ccc(C#N)c(Cl)c2)nn1 (centres unmarked),–
–,COc1cc(NC(=O)Nc2cccc(CNC(=O)O[C@H]3CCOC3)c2)ccc1-c1cnco1 [merimepodib],concentration inhibiting lymphocyte proliferation [1]: ~100 nM
176 to 178,C[C@@H](Oc1ccnc2ccccc12)c1cn(-c2ccc(C#N)c(Cl)c2)nn1,–
146 to 148,"CC(Oc1cccc2ccccc12)C(=O)Nc1ccc(Cl)cc1 (centres unmarked) [Compound 93, N-(4-chlorophenyl)-2-(1-naphthalenyloxy)propanamide]",–
176 to 178,"CC(Oc1ccnc2ccccc12)c1cn(-c2ccc(C#N)cc2)nn1 (centres unmarked) [Compound 15, 4-(4-(1-(quinolin-4-yloxy)ethyl)-1H-1,2,3-triazol-1-yl)benzonitrile]",–
230 to 232,"Clc1ccc(-n2cc(COc3ccnc4ccccc34)nn2)cc1 [Compound 17, 4-((1-(4-chlorophenyl)-1H-1,2,3-triazol-4-yl)methoxy)quinoline]",–
184 to 186,"C[C@@H](Oc1cccc2c1ccc[n+]2[O-])c1cn(-c2ccc(Cl)cc2)nn1 [Compound 32, (R)-5-(1-(1-(4-chlorophenyl)-1H-1,2,3-triazol-4-yl)ethoxy)quinoline 1-oxide]",–
216 to 218,"CC(Oc1cc[n+]([O-])c2ccccc12)c1cn(-c2ccc(Cl)c(Cl)c2)nn1 (centres unmarked) [Compound 26, 4-(1-(1-(3,4-dichlorophenyl)-1H-1,2,3-triazol-4-yl)ethoxy)quinoline 1-oxide]",–
–,C[C@@H](Oc1ccnc2ccccc12)c1cn(-c2ccc(Cl)c(Cl)c2)nn1 [A105],"host cell (HCT-8) growth effect, in words (HCT-8 cells): do not inhibit host cell growth; selectivity for T. gondii-CpIMPDH parasite over wild-type T. gondii (T. gondii-CpIMPDH): little selectivity"
–,"NC(=O)c1csc([C@@H]2O[C@H](CO)[C@@H](O)[C@H]2O)n1 [Tiazofurin, tiazofurin]","Ki ([2]; read-out: Ki (observed), range over prokaryotic IMPDHs): 1000 to 69000 µM; Ki [2, 3]: 300 to 700 µM"
150 to 152,"CC(C)C(Oc1cccc2ccccc12)C(=O)Nc1ccc(Cl)cc1 (centres unmarked) [Compound 116, N-(4-chlorophenyl)-3-methyl-2-(1-naphthalenyloxy)butanamide]",–
–,C[C@@H](Oc1cc[n+]([O-])c2ccccc12)c1cn(-c2ccc(Cl)cc2)nn1 [A110],"host cell (HCT-8) growth effect, in words (HCT-8 cells): negligible effects on host cell growth"
–,Nc1ncnc2c1ncn2[C@@H]1O[C@H](COP(=O)(O)OP(=O)(O)O)[C@@H](O)[C@H]1O [ADP],"Ki [2, 3]: 200 to 9000 µM"
98 to 100,"CC(Oc1cccc2ccccc12)c1cn(-c2ccc(Cl)cc2)nn1 (centres unmarked) [Compound 1, 1-(4-chlorophenyl)-4-(1-(naphthalene-1-yloxy)ethyl)-1H-1,2,3-triazole]",–
–,"COc1c(C)c2c(c(O)c1C/C=C(\C)CCC(=O)O)C(=O)OC2 [MPA, mycophenolic acid]","EC50 (wild-type T. gondii; media with xanthine (0.33 mM), read-out: EC50 wild-type T. gondii growth, xanthine supplemented): ≥ 78 µM; EC50 (wild-type T. gondii; read-out: EC50 wild-type T. gondii growth): 2.6 µM; EC50 (T. gondii-CpIMPDH; Toxoplasma gondii, read-out: EC50 T. gondii-CpIMPDH growth): > 65 µM; EC50 (T. gondii-ΔHXGPRT): 0.29 µM"

SMILES,melting point [°C],also measured
"C[C@@H](Oc1ccnc2ccccc12)c1cn(-c2ccc(Cl)c(Cl)c2)nn1 [Compound 28, (R)-4-(1-(1-(3,4-dichlorophenyl)-1H-1,2,3-triazol-4-yl)ethoxy)quinoline]",62 to 64,–
"CC(Oc1ccnc2ccccc12)c1cn(-c2ccc(Cl)c(Cl)c2)nn1 (centres unmarked) [Compound 14, 4-(1-(1-(3,4-dichlorophenyl)-1H-1,2,3-triazol-4-yl)ethoxy)quinoline]",62 to 64,–
"O=C(Nc1ccc(Cl)cc1)C(Oc1cccc2ccccc12)c1ccccc1 (stereo not drawn) [Compound 102, N-(4-chlorophenyl)-α-(1-naphthalenyloxy)benzeneacetamide]",176 to 178,–

# Source: US10125116B2, “Compounds and methods for treating mammalian gastrointestinal microbial infections” (Brandeis University, priority 2009, dated 2018)
